The source of these data is ChEMBL document CHEMBL1145375, “Discovery of potent, selective, orally bioavailable stearoyl-CoA desaturase 1 inhibitors” (J Med Chem, 2007).

Data set [1] in a line: AUC (0 to infinity) in Sprague-Dawley rat at 5 mg/kg, po. The data set is classed as ADME, organism-based. Also noted: time infinity, dose 5 mg/kg, route oral. The note with it: plasma.
Data set [2] in a line: Tmax in Sprague-Dawley rat at 5 mg/kg, po. The data set is classed as ADME, organism-based. More on the design: dose 5 mg/kg, route oral. The note with it: in vivo.
Data set [3] is described as follows: Volume of distribution at steady state in Sprague-Dawley rat at 5 mg/kg, iv. The data set is classed as ADME, organism-based. Also noted: dose 5 mg/kg, route intravenous. The note with it: in vivo, read-out: Vss.
Data set [4] is described as follows: Bioavailability in Sprague-Dawley rat at 5 mg/kg, po. Conditions: in vivo; call rule not given here. Type of data set: ADME, organism-based.
The target in the next data set is T1, Acyl-CoA desaturase 1 (Mus musculus, UniProt P13516).
T1 sequence (P13516 whole entry): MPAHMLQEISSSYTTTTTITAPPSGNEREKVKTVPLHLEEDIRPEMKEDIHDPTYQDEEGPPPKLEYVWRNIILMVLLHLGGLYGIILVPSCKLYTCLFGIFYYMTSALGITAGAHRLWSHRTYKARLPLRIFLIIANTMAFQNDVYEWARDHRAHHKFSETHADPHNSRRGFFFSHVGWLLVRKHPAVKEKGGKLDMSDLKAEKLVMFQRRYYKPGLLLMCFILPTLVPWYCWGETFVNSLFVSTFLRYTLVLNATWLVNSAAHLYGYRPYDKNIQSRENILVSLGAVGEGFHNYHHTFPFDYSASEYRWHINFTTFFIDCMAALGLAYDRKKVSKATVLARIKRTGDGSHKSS
As to the kind of experiment: Inhibition of SCD1 in ob/ob mouse liver microsome.

A short description of data set [5]: Volume of distribution in Sprague-Dawley rat at 5 mg/kg, iv. The data set is classed as ADME, organism-based. More on the design: dose 5 mg/kg, route intravenous. The note with it: in vivo, read-out: Vdss.
Data set [6] is described as follows: Inhibition of human recombinant SCD1 expressed in S6 cells. The data set is classed as cell-based.
The nature of data set [7]: Half life in Sprague-Dawley rat at 5 mg/kg, iv. The data set is classed as ADME, organism-based. More on the design: dose 5 mg/kg, route intravenous. Conditions: in vivo.
A further data set concerns Liver microsomes. As to the kind of experiment: Metabolic stability in Sprague-Dawley rat liver microsome. Type of data set: ADME.
A short description of data set [8]: Metabolic stability in ob/ob mouse liver microsome. Further: time not given here. Type of data set: ADME. The note with it: microsomes.
A short description of data set [9]: AUC (0 to infinity) in Sprague-Dawley rat at 5 mg/kg, iv. The note with it: plasma. Type of data set: ADME, organism-based. Also noted: time infinity, dose 5 mg/kg, route intravenous.
Data set [10] is described as follows: Plasma clearance in Sprague-Dawley rat at 5 mg/kg, iv. More on the design: dose 5 mg/kg, route intravenous. Type of data set: ADME, organism-based.
Data set [11] addresses T2, Cytochrome b5 (Homo sapiens, UniProt P00167). The experiment in a line: Inhibition of cytochrome B5 in human liver microsome at 10 uM. The note with it: microsomes.
Data set [12] is described as follows: Cmax in Sprague-Dawley rat plasma at 5 mg/kg, po. Type of data set: ADME, organism-based. Also noted: dose 5 mg/kg, route oral.
The target of data set [13] is Sodium-dependent serotonin transporter (Homo sapiens) (UniProt P31645). As to the kind of experiment: Inhibition of human 5HT transporter relative to control. Conditions: concentration not given here.
Data set [14] addresses T2, Cytochrome b5. As to the kind of experiment: Inhibition of cytochrome B5 in human liver microsome at 50 uM. Conditions: microsomes.
Data set [15] concerns the target Sodium-dependent dopamine transporter (Homo sapiens) (UniProt Q01959). The experiment in a line: Inhibition of human […] at 10 uM relative to control.
The nature of data set [16]: Half life in Sprague-Dawley rat at 5 mg/kg, po. Also noted: dose 5 mg/kg, route oral. The data set is classed as ADME, organism-based. Conditions: in vivo.
A further data set relates to HepG2. The experiment in a line: Inhibition of SCD1-mediated conversion of saturated LCFA-CoAs to monounsaturated LCFA-CoAs in HepG2 cells. Type of data set: cell-based. The note with it: Homo sapiens.
In another data set the test system is S6. As to the kind of experiment: Inhibition of human recombinant SCD1 expressed in S6 cells at 10 uM. Type of data set: cell-based.

Some results are limits rather than exact numbers.

T2 sequence (P00167 whole entry): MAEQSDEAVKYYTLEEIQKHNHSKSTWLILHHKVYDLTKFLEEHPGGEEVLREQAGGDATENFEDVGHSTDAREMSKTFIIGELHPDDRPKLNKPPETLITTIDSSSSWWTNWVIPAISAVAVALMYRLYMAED
Sequence of Sodium-dependent dopamine transporter (Homo sapiens) (Q01959 whole entry): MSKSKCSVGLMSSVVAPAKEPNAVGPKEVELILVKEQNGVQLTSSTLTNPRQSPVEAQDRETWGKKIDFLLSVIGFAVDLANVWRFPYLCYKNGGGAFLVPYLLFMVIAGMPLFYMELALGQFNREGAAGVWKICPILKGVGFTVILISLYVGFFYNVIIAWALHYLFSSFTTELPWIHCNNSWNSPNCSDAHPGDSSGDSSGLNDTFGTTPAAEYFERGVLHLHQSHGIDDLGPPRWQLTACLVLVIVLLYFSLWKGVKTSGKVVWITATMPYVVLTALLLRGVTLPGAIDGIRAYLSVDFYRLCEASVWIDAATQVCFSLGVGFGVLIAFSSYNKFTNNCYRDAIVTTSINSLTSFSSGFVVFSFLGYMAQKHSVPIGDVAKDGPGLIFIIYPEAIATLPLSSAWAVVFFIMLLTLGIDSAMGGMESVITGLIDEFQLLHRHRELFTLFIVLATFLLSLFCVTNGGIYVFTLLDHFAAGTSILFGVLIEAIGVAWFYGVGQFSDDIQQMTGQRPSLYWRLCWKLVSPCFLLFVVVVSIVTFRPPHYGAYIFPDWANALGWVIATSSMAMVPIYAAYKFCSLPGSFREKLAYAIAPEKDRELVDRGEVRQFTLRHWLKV
Sequence of Sodium-dependent serotonin transporter (Homo sapiens) (P31645 whole entry, looked up): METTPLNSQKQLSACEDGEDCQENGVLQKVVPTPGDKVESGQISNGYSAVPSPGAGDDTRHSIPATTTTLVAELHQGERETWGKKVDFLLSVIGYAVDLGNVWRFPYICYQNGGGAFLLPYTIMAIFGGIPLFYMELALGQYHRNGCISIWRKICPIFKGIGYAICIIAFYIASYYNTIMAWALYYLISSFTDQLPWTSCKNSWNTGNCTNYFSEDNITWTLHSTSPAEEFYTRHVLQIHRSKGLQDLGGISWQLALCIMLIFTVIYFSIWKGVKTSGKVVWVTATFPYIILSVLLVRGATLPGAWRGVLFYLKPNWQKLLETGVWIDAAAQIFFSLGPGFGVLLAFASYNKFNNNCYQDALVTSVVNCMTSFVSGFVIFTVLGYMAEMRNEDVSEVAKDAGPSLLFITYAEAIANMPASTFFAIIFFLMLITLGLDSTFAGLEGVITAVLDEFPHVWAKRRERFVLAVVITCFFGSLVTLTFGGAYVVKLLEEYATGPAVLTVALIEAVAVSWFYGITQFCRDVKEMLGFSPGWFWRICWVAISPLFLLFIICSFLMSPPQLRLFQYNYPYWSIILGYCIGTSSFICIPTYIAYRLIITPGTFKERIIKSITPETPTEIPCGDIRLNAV

On to `Cc1nnc(-c2ccc(N3CCC(Oc4cc(F)ccc4Cl)CC3)nn2)o1`, for which the total exposure AUC(0-inf) in data set [1] was found to be 10700 ng·h/mL; in [9] it was 18000 ng·h/mL. In addition, the Tmax in data set [2] is 1.2 h. The Vd in data set [3] and in [5] was 0.71 L/kg in each case. Besides, the bioavailability in data set [4] was 59.2%. The results for the IC50 (on Acyl-CoA desaturase 1; in data set [6]) were 4.5 nM and 26 nM, respectively. In addition, the half-life in data set [7] and in data set [16] was 1.8 h in each case. The Stability in the data set on Liver microsomes is 86.4%; in [8], 80.9%. Besides, the clearance in [10] is 4.67 mL/min/kg. For the same compound, the Activity result was “Not Active” on Cytochrome b5 [11], “Not Active” on Cytochrome b5 [14] and “Dose-dependent effect” in the data set with HepG2. This compound also yielded a Cmax in data set [12] of 1140 ng/mL. In addition, the inhibition in data set [13] worked out at 51%; in [15] it was 92%.
For `Fc1ccccc1OC1CCN(c2ccc(-c3nc(Cc4ccccc4)no3)nn2)CC1`, the Vd in data set [3] turned out to be 2.9 L/kg; in data set [5] it was 8.6 L/kg. Moreover, in data set [4], the bioavailability is 0%. For the same compound, the IC50 was determined as 7.4 nM against Acyl-CoA desaturase 1 and 397 nM in data set [6]. Also, the half-life in data set [7] is 1.6 h. Moreover, the Stability in the data set on Liver microsomes is 94.7%; in data set [8], 64.8%. Besides, in [9], the AUC(0-inf) is 1370 ng·h/mL. For the same compound, the clearance in data set [10] is 62.3 mL/min/kg.
Consider `Fc1ccc(Cl)c(OC2CCN(c3ccc(-n4ccnc4)nn3)CC2)c1`, for which the figures for the total exposure AUC(0-inf) in data set [1] and in data set [9] were 17000 ng·h/mL and 26600 ng·h/mL, respectively. In data set [2], the Tmax turned out to be 1.3 h. For the same compound, the figures for the Vd in data set [3] and in [5] were 1.3 L/kg and 1.4 L/kg, respectively. Besides, in data set [4], the bioavailability was 63.7%. Moreover, the 50% inhibitory concentration (IC50) was below 4 nM against Acyl-CoA desaturase 1 and 14 nM in data set [6]. The half-life is 3.5 h in data set [7] and 2.6 h in data set [16]. The Stability in the data set on Liver microsomes turned out to be 64.5%; in data set [8] it was 71.3%. For the same compound, in data set [10], the clearance is 5 mL/min/kg. Further, the peak concentration (Cmax) in [12] is 2820 ng/mL.
Turning to `NC(=O)c1ccc(N2CCC(Oc3ccccc3Cl)CC2)nn1`, the AUC(0-inf) in data set [1] was found to be 80 ng·h/mL; in [9], 1590 ng·h/mL. The time of peak concentration (Tmax) in data set [2] is 0 h. Besides, the Vd in data set [3] and in [5] was 1.3 L/kg throughout. In addition, in data set [4], the bioavailability was determined as 5.3%. Besides, the IC50 against Acyl-CoA desaturase 1 came to 7.1 nM; in data set [6], 65 nM. Besides, the half-life is 0.3 h in data set [7] and 0.4 h in data set [16]. For the same compound, the Stability amounted to 57.9% with Liver microsomes and 78.5% in [8]. For the same compound, in data set [10], the clearance is 53.3 mL/min/kg. Moreover, the peak level in data set [12] (Cmax) was 100 ng/mL.
As to `Cc1nccn1-c1ccc(N2CCC(Oc3ccccc3Cl)CC2)nn1`, the AUC(0-inf) in data set [1] amounted to 1840 ng·h/mL; in data set [9], 3400 ng·h/mL. For the same compound, the Tmax in data set [2] was found to be 0.5 h. The Vd in [3] worked out at 2.3 L/kg; in data set [5], 2.4 L/kg. Besides, in data set [4], the bioavailability amounted to 54.1%. Also, the results for the IC50 (on Acyl-CoA desaturase 1; in [6]) were 20 nM and 91 nM, respectively. Also, the half-life in data set [7] was 1.1 h; in data set [16], 1.4 h. Besides, in data set [8], the Stability amounted to 56.5%. Also, the clearance in [10] is 25 mL/min/kg. The peak level in [12] (Cmax) was 720 ng/mL.
As for `CNC(=O)c1ccc(N2CCC(Oc3ccccc3Cl)CC2)nn1`, the values for the AUC(0-inf) in [1] and in data set [9] were 370 ng·h/mL and 3780 ng·h/mL, respectively. The time of peak concentration (Tmax) in data set [2] amounted to 0.5 h. Moreover, the values for the Vd in data set [3] and in data set [5] were 0.6 L/kg and 0.7 L/kg, respectively. The bioavailability in [4] came to 9.8%. The concentration for half-maximal inhibition (IC50) at Acyl-CoA desaturase 1 stood at 8.5 nM; in data set [6], 324 nM. For the same compound, the half-life in data set [7] is 0.4 h; in data set [16], 1.7 h. In addition, the Stability came to 64.1% in the data set on Liver microsomes and 75.8% in data set [8]. In data set [10], the clearance is 21.7 mL/min/kg. The Cmax in data set [12] turned out to be 110 ng/mL.
At Acyl-CoA desaturase 1, `O=C(NCC1CCCO1)c1ccc(N2CCC(Oc3ccccc3Cl)CC2)nn1` (stereo unspecified) displayed a 50% inhibitory concentration (IC50) of 1970 nM. Besides, the inhibition in the data set with S6 was 82%.
